The text below walks through data of patent US9290535B2, “Uridine-based gadolinium complex and MRI contrast agent including the same” (Korea University Researchand Business Foundation, priority 2011, dated 2016).

Several values for one entry are separate records, joined by “and”; a condition that tells them apart may be missing. Equal values may be shown once.

Series [1] can be described thus: Relaxivity measurements (r1, r2) in PBS solution. Particulars: for Relaxivity r1: PBS solution, 36° C. The series is classed as physicochemical.
Experimental: The relaxation efficiency of the newly synthesized amphiphilic MRI contrast agents according to the present invention was determined by measuring longitudinal relaxivity (r1) and transverse relaxivity (r2) at 20 MHZ (0.47 T) and 60 MHz (1.41 T) in phosphate buffered saline (PBS) solution at 36° C.
Series [2] deals with T1, human serum albumin (HSA) (Homo sapiens, UniProt P02768).
T1 construct: purchased Sigma (Bornem, Belgium) A3782
T1 sequence (P02768 25-609): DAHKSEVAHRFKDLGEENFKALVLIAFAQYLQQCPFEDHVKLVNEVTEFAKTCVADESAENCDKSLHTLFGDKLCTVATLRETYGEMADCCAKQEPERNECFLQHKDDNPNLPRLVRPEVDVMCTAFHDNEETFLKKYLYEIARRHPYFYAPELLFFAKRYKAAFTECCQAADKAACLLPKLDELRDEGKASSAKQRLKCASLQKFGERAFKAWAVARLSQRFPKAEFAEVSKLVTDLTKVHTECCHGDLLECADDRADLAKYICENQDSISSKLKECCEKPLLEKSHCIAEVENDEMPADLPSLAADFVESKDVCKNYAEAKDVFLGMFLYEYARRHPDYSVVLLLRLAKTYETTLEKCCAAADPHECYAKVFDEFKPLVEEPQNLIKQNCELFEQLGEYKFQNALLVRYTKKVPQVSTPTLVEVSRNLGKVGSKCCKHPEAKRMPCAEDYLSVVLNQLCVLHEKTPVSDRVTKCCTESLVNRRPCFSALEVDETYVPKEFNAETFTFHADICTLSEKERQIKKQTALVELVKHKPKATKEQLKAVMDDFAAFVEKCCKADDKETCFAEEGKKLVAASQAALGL
As to the kind of experiment: Interaction with human serum albumin (relaxivity with HSA, binding constant). Particulars: 36° C. The source says:
It is well known that non-covalent interaction of the contrast agent with human serum albumin (HSA) increases its circulation time in blood and slows down tubling rate, leading to greater contrast enhancement for blood vessel imaging. In this example, effective interaction between the newly synthesized contrast agents (CAs) and human serum albumin (HSA) were investigated.
Human serum albumin (HSA; Product No. A3782) was purchased from Sigma (Bornem, Belgium) and was used without further purification. HSA binding experiment was performed with 50 μM of the complexes LGd1-5 in PBS solution depending on the concentration of HSA from 0 to 4 mM at 20 MHz and 36° C.
The increment of R1/R1^0 with increasing aliphatic chain length is: LGd2>LGd3>LGd4>LGd5.
Furthermore, to know the non-covalent binding strength between HSA and the complex, a binding constant (Ka) of (3.34±0.28)×10^3 M^−1 for the complex LGd3 was determined using the theoretical equation reported in the reference (D. T. Schuhle, J. Schatz, S. Laurent, L. V. Elst, R. N. Muller, M. C. A. Stuart, J. A. Peters, Chem. Eur. J. 2009, 15, 3290). The relaxivity for the non-aggregate form of LGd3 (r1^f) was measured to be 18.5 mM^−1s^−1 (below CMC=50 μM; FIG. 10), while for adduct LGd3.HSA (r1^c), 41.0 mM^−1s^−1 at 36° C. and 20 MHz (0.47 T) in PBS solution. […] As a result, the complex LGd3 of the present invention could be retained in vivo for a longer time.

A short description of series [3]: pH dependence of water 1H relaxivity. The series is classed as physicochemical. The procedure:
The relaxivities of the non-aggregated complex LGd1 and the most aggregated complex LGd3 (FIG. 7, average diameter […]) were investigated at various pH values (3.5-11) at 60 MHz (1.41 T) and 36° C.
The pH dependence of water ^1H-NMR relaxivity r1 was obtained at 60 MHz and 36° C. The complexes LGd1 and LGd3 were dissolved in previously prepared stock solutions (StockOptions pH Screen, Hampton Research, USA) at pH 3.5-11.

Series [4] can be described thus: Dynamic light scattering (DLS) of micelles. The series is classed as physicochemical.
Series [5] is described as follows: Critical micelle concentration from 1/T1 versus concentration. The series is classed as physicochemical. Particulars: FIG. 10. As for the experimental part: Longitudinal and transverse relaxivities, r1 and r2, were measured at 20 MHz (0.47 T) and 60 MHz (1.41 T) at 36° C. on NMR (mq20 and mq60, Bruker, Germany) and animal MRI (Biospec 47/40, Bruker, Germany) systems. T1 and T2 relaxation times were measured with inversion recovery and spin-echo pulse sequences, respectively. The critical micelle concentration (cmc) of the complex LGd3 was determined by measuring the proton relaxation rate 1/T1 as a function of complex LGd3 concentration.

Series [6] can be described thus: Stability against transmetallation by Zn2+ (time evolution of proton relaxation rate). The series is classed as physicochemical. The procedure:
The stability of the gadolinium complex against various biologically active metal ions is very important in in vivo applications. Among them, only Zn^2+ can displace significant amounts of the Gd^3+ ion as concentration of Zn^2+ in blood is relatively high (55-125 μM/L). The stability of the complexes LGd1-4 against transmetallation by Zn^2+ was studied employing the method of others.
The time evolution of the ^1H longitudinal relaxivity (R1) of a 2.5 mM gadolinium complex with 2.5 mM ZnCl2 in PBS solution was measured. Stability of the amphiphilic complex LGd2 of the present invention was greater than that of the non-aggregated complex LGd1 (FIG. 13). After 70 h, the relaxivities were retained 30, 50, 21, and 12% for LGd1-4, respectively.

The nature of series [7]: Contrast-enhanced dynamic MRI in mice (CNR in liver and blood). The series is classed as in vivo, Balb/C mice. Particulars: for Peak CNR in liver: i.v. injection, 4.7 T. The procedure: The whole-body pharmacokinetics of T1 contrast agents can be measured by dynamic 2D or 3D MR imaging.
5-Week-old male Balb/C mice (n=3; OrientBio, Korea) were used for contrast-enhanced dynamic MRI. MRI was performed by using a 4.7 T MRI system (BioSpec 47/40; Bruker, Germany) with a quadrature birdcage RF coil (35 mm inner diameter) for signal transmission and reception.
Bolus of the contrast agents (0.1 mmol Gd/kg) was injected via tail vein. During MRI acquisition, the animals were anesthetized using 1-1.25% of inhalational isoflurane with O2:N2O (3:7) mixture.
To quantitatively measure signal intensity in region-of-interests (ROIs) as contrast-noise ratio (CNR), a reference of water sample (1 g/l CuSO4 in 8:2 of D2O:H2O) in a cylindrical tube (5 mm diameter) was used.
Dynamic 2D T1-weighted images were acquired using a spin-echo (SE) pulse sequence with the following parameters: TE/TR=10/400 ms, number of average=4, matrix size=256×256, slice thickness=1 mm, field of view=30×30 mm^2 (in axial slice) or 50×30 mm^2 (in coronal slice), and scan time=6 min 50 s).
Dynamic 3D T1-weighted images were acquired using a fast low angle shot gradient echo (FLASH) pulse sequence with parameters of TE/TR=2.4/7.5 ms, number of average=4, flip angle=30°, field of view=30×30×20 mm^3, matrix size=256×256×128, and scan time=12 min 17 s.

The conditions of series [8]: clinically used commercial T1 contrast agents, comparison values; cited from earlier work.

`CCCCCCCCCC(=O)O[C@@H]1[C@H](OC(=O)CCCCCCCCC)[C@@H](CN(CCN(CC(=O)[O-])CC(=O)[O-])CCN(CC(=O)[O-])CC(=O)[O-])O[C@H]1n1ccc(=O)[nH]c1=O.[Gd+3]` [LGd3]: the “Relaxivity r1” value in series [1] (20 MHz (0.47 T)) is 30.3 mM⁻¹ s⁻¹ and 30.30 mM⁻¹ s⁻¹; in series [1] (60 MHz (1.41 T)), 23.4 mM⁻¹ s⁻¹ and 23.40 mM⁻¹ s⁻¹. In series [1] (PBS, 0.47 T and 1.41 T), the “Relaxivity increase compared to Magnevist/Omniscan (Gd-DTPA, Gd-DTPA-BMA)” value is 6 fold. Moreover, the “Effective interaction with HSA (R1/R1^0)” value in series [2] (50 μM complex, HSA below 1.0 mM, 20 MHz) is “high”. The “Relaxivity r1^a (with HSA)” value in series [2] (20 MHz (0.47 T), PBS solution with 0.65 mM HSA) is 41.0 mM⁻¹ s⁻¹ and 41.00 mM⁻¹ s⁻¹. For the same compound, the “Relaxivity of adduct with HSA (r1^c)” value in series [2] (adduct LGd3.HSA, 20 MHz (0.47 T), PBS) came out at 41.0 mM⁻¹ s⁻¹. Moreover, the “Relaxivity of the non-aggregate form (r1^f)” value in series [2] (below CMC, 20 MHz (0.47 T), PBS) came out at 18.5 mM⁻¹ s⁻¹. The “Binding constant (Ka) with HSA” value in series [2] (non-covalent binding, theoretical equation, 20 MHz, PBS) was “(3.34±0.28)×10^3 M^−1”. Also, the “Relaxivity variation Δr1 between pH 6 and 7.5” value in series [3] (60 MHz, 36° C.) is given as about 2.9. For the same compound, in series [3] (60 MHz, 36° C.), the “Relaxivity variation Δr1 from pH 8 to pH 11” value is reported as about 10.3. In series [3] (pH 8, 60 MHz (1.41 T), 36° C.), the “Relaxivity at pH 8” value is given as “about 24.5 mM^−1s^−1”. The “Relaxivity at pH 10.5” value in series [3] (pH 10.5) is given as “about 17.3 mM^−1s^−1”. Also, the “Relaxivity at pH 11” value in series [3] (pH 11, 60 MHz (1.41 T), 36° C.) was 14.2 mM^−1s^−1. For the same compound, the Average diameter (FIG. 7) as printed in nm in series [4] (FIG. 7) was 51.2 nm. Also, the “DLS PDI of micelles at alkaline pH” value in series [4] (FIG. 12, pH 10.5) is recorded as 2.01. In addition, in series [4] (FIGS. 6 to 9), the “DLS PDI of micelles” value is on record as 1.46. The “DLS average size of micelles” value in series [4] (FIGS. 6 to 9, pH 7.4) is 51.16 nm and 51.15 nm. The “Critical micelle concentration (CMC)” value in series [5] (20 MHz, 36° C.) is “about 0.05 mM”; in series [5], 50 µM. Also, in series [6] (2.5 mM complex with 2.5 mM ZnCl2 in PBS, after 70 h), the “Relaxivity retained after transmetallation” value came out at 21%. For the same compound, the “y0 of fit y0+A×exp(−t/C1) of proton relaxation rate during transmetallation” value in series [6] (Zn(II) ions, PBS, 20 MHz (0.47 T), 36° C., steady state in about 70 h) is 0.21. Besides, in series [7] (0.1 mmol Gd/kg i.v.), the “Duration of hyperintense CNR in liver (delayed hepatobiliary phase)” value was “at least 11 h”. In addition, the “Time of bright contrast enhancement in gall bladder after injection” value in series [7] (0.1 mmol Gd/kg i.v., 2D MR images) lay within 2 to 4 h. The “Peak and plateau enhancement in liver parenchyma” value in series [7] (0.1 mmol Gd/kg i.v., CNR in liver from 1.67 to 4.0) is reported as “about 240%”. The “Liver parenchyma enhancement versus same dose of Gd-DTPA-BMA” value in series [7] (0.1 mmol Gd/kg, 3D dynamic images) is “more intense and prolonged enhancement”. In addition, in series [7] (0.1 mmol Gd/kg, 11 h after injection), the “CNR in liver at 11 h above pre-value” was “about 60%”. In addition, the “T1-contrasted enhancement in liver parenchyma, caudal vena cava and kidney” value in series [7] (30 min after injection, 0.1 mmol Gd/kg) was “markedly seen”. Also, the “SI in liver compared with pre-injection value” in series [7] (9 h after injection) was “still relatively high”. For the same compound, in series [7] (after maximum at about 2 h post-injection), the “Duration of plateau-like constant CNR in liver” value is listed as “about 2 h”. For the same compound, the “Peak CNR in liver” value in series [7] was 4.0.
Regarding `CNC(=O)CN(CCN(CCN(CC(=O)[O-])CC(=O)NC)CC(=O)[O-])CC(=O)[O-].[Gd+3]` [Omniscan ®, Gd-DTPA-BMA, reference compound], the results for the “Relaxivity r1” value in series [1] (20 MHz (0.47 T)) and in series [1] (60 MHz (1.41 T)) were 4.41 mM⁻¹ s⁻¹ and 3.68 mM⁻¹ s⁻¹, respectively. Further, in series [7], the “Peak CNR in liver” value is “about 2.8”. Moreover, the “Relaxivity retained after transmetallation (commercial contrast agents)” value in series [8] is 10%.
As for `CNC[C@H](O)[C@@H](O)[C@H](O)[C@H](O)CO.CNC[C@H](O)[C@@H](O)[C@H](O)[C@H](O)CO.O=C([O-])CN(CCN(CC(=O)[O-])CC(=O)O)CCN(CC(=O)[O-])CC(=O)O.[Gd+3]` [Magnevist ®, Gd-DTPA, reference compound], the “Relaxivity r1” value came to 4.70 mM⁻¹ s⁻¹ in series [1] (20 MHz (0.47 T)) and 3.81 mM⁻¹ s⁻¹ in series [1] (60 MHz (1.41 T)). For the same compound, the “Relaxivity retained after transmetallation (commercial contrast agents)” value in series [8] is listed as 50%.
